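48-hour exposure; five concentrations; linearly interpolated endpoints. GI50 = concentration required for 50% inhibition of growth.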 Activity calls are given as the source filed them. Rule as the data show it: active = GI50 up to about 1.1 µM and inactive = higher.
Tests used:
Assay in all cases: growth of human tumour cells (NCI), 48 h
IGROV-1 = tested on: IGROV-1
HCC 2998 = tested on: HCC 2998
ACHN = tested on: ACHN
SNB-19 = tested on: SNB-19
SW-620 = tested on: SW-620
SF-268 = tested on: SF-268
OVCAR-3 = tested on: OVCAR-3
OVCAR-4 = tested on: OVCAR-4
RPMI-8226 = tested on: RPMI-8226
SF-539 = tested on: SF-539
SK-MEL-28 = tested on: SK-MEL-28
TK-10 = tested on: TK-10
SF-295 = tested on: SF-295
SK-OV-3 = tested on: SK-OV-3
KM12 = tested on: KM12
NCI-H522 = tested on: NCI-H522
SNB-75 = tested on: SNB-75
A549 = tested on: A549

SMILES | GI50 (IGROV-1) | GI50 (HCC 2998) | GI50 (ACHN) | GI50 (SNB-19) | GI50 (SW-620) | GI50 (SF-268) | GI50 (OVCAR-3) | GI50 (OVCAR-4) | GI50 (RPMI-8226) | GI50 (SF-539) | GI50 (SK-MEL-28) | GI50 (TK-10) | GI50 (SF-295) | GI50 (SK-OV-3) | GI50 (KM12) | GI50 (NCI-H522) | GI50 (SNB-75) | GI50 (A549)
O=c1[nH]c(=O)n([C@H]2C[C@@H](CO)[C@@H](O)C2)cc1I | > 100 µM (inactive) | > 100 µM (inactive) | > 100 µM (inactive) | > 100 µM (inactive) | > 100 µM (inactive) | > 100 µM (inactive) | > 100 µM (inactive) | > 100 µM (inactive) | > 100 µM (inactive) | > 100 µM (inactive) | > 100 µM (inactive) | > 100 µM (inactive) | > 10 µM (inactive) | > 100 µM (inactive) | > 100 µM (inactive) | > 100 µM (inactive) | 91.6 µM (inactive) | > 100 µM (inactive)
Cc1ccc(Nc2nc3c(s2)C(=O)c2ccccc2C3=O)c(C)c1 | 16.4 µM (inactive) | 17.2 µM (inactive) | 15.7 µM (inactive) | 14.6 µM (inactive) | 20 µM (inactive) | 11.1 µM (inactive) | 13.7 µM (inactive) | 12.2 µM (inactive) | 12.1 µM (inactive) | 17.5 µM (inactive) | 16.8 µM (inactive) | 21.8 µM (inactive) | 15.3 µM (inactive) | 29.6 µM (inactive) | 16 µM (inactive) | 3.14 µM (inactive) | 15.8 µM (inactive) | 16.6 µM (inactive)
O=C(O)CCC(=O)Oc1ccc(O)c2c1CCCC2=O | > 100 µM (inactive) | > 100 µM (inactive) | > 100 µM (inactive) | > 100 µM (inactive) | > 100 µM (inactive) | > 100 µM (inactive) | > 100 µM (inactive) | > 100 µM (inactive) | 95.5 µM (inactive) | > 100 µM (inactive) | > 100 µM (inactive) | > 100 µM (inactive) | > 100 µM (inactive) | > 100 µM (inactive) | > 100 µM (inactive) | 66.5 µM (inactive) | 55.7 µM (inactive) | > 100 µM (inactive)
CC1(C)OCC([C@H]2CC23SCCCS3)O1 (some centres undefined) | > 100 µM (inactive) | – | > 100 µM (inactive) | > 100 µM (inactive) | – | > 100 µM (inactive) | – | > 100 µM (inactive) | > 100 µM (inactive) | > 100 µM (inactive) | > 100 µM (inactive) | > 100 µM (inactive) | > 100 µM (inactive) | > 100 µM (inactive) | > 100 µM (inactive) | > 100 µM (inactive) | > 100 µM (inactive) | > 100 µM (inactive)
COc1ccc2nc3ccccc3c(NCCCCCCN(C)CCCl)c2c1 | 0.163 µM (active) | 0.705 µM (active) | 0.239 µM (active) | 1.17 µM (inactive) | 0.0583 µM (active) | 0.133 µM (active) | 1.19 µM (inactive) | 1.09 µM (active) | 0.0728 µM (active) | 0.474 µM (active) | 0.986 µM (active) | 1.32 µM (inactive) | 1 µM (active) | 0.664 µM (active) | 0.27 µM (active) | 0.242 µM (active) | 0.703 µM (active) | 0.297 µM (active)
Nc1ccc2nc3n(c2c1)C(=O)c1ccccc1-3 | > 100 µM (inactive) | > 100 µM (inactive) | > 100 µM (inactive) | > 100 µM (inactive) | > 100 µM (inactive) | > 100 µM (inactive) | > 100 µM (inactive) | > 100 µM (inactive) | > 100 µM (inactive) | > 100 µM (inactive) | > 100 µM (inactive) | > 100 µM (inactive) | > 100 µM (inactive) | > 100 µM (inactive) | > 100 µM (inactive) | > 100 µM (inactive) | > 100 µM (inactive) | > 100 µM (inactive)
COc1ccc2c(c1)Oc1cc(O)ccc1[C@H]2c1ccccc1C(=O)NC(C)c1ccccc1 (some centres undefined) | 15.1 µM (inactive) | 12.8 µM (inactive) | 13.2 µM (inactive) | 17.6 µM (inactive) | 17.1 µM (inactive) | 19 µM (inactive) | 12.3 µM (inactive) | – | 4.66 µM (inactive) | 16.1 µM (inactive) | 17.7 µM (inactive) | 24.2 µM (inactive) | 12.4 µM (inactive) | 21 µM (inactive) | 14.3 µM (inactive) | 12 µM (inactive) | 16.4 µM (inactive) | 13.2 µM (inactive)
CC[C@@H]1OC2(C)CC(S(=O)(=O)c3ccccc3O)CC1O2 (some centres undefined) | > 100 µM (inactive) | > 100 µM (inactive) | > 100 µM (inactive) | > 100 µM (inactive) | > 100 µM (inactive) | > 100 µM (inactive) | > 100 µM (inactive) | > 100 µM (inactive) | > 100 µM (inactive) | > 100 µM (inactive) | > 100 µM (inactive) | – | > 100 µM (inactive) | > 100 µM (inactive) | > 100 µM (inactive) | > 100 µM (inactive) | > 100 µM (inactive) | > 100 µM (inactive)
